# Assay results: ChEMBL document CHEMBL4665642, “Anticancer profile of newly synthesized BRAF inhibitors possess 5-(pyrimidin-4-yl)imidazo[2,1-b]thiazole scaffold” (Bioorg Med Chem, 2019)
# What was measured:
# Type in all cases: functional
# Details in all cases: read-out: Activity
# [1] = test system: IGROV-1; experiment: Cytotoxicity against human IGROV-1 cells assessed as cell viability at 10 uM incubated for 48 hrs by sulforhodamine B assay relative to control
# [2] = test system: HCT-116; experiment: Cytotoxicity against human HCT-116 cells assessed as cell viability at 10 uM incubated for 48 hrs by sulforhodamine B assay relative to control
# [3] = test system: OVCAR-8; experiment: Cytotoxicity against human OVCAR-8 cells assessed as cell viability at 10 uM incubated for 48 hrs by sulforhodamine B assay relative to control
# [4] = test system: NCI-H226; experiment: Cytotoxicity against human NCI-H226 cells assessed as cell viability at 10 uM incubated for 48 hrs by sulforhodamine B assay relative to control
# [5] = test system: SF-295; experiment: Cytotoxicity against human SF-295 cells assessed as cell viability at 10 uM incubated for 48 hrs by sulforhodamine B assay relative to control
# [6] = test system: CAKI-1; experiment: Cytotoxicity against human CAKI-1 cells assessed as cell viability at 10 uM incubated for 48 hrs by sulforhodamine B assay relative to control
# [7] = test system: A549; experiment: Cytotoxicity against human A549 cells assessed as cell viability at 10 uM incubated for 48 hrs by sulforhodamine B assay relative to control
# [8] = test system: RXF 393; experiment: Cytotoxicity against human RXF 393 cells assessed as cell viability at 10 uM incubated for 48 hrs by sulforhodamine B assay relative to control
# [9] = test system: MDA-MB-231; experiment: Cytotoxicity against human MDA-MB-231 cells assessed as cell viability at 10 uM incubated for 48 hrs by sulforhodamine B assay relative to control
# [10] = test system: NCI/ADR-RES; experiment: Cytotoxicity against human NCI/ADR-RES cells assessed as cell viability at 10 uM incubated for 48 hrs by sulforhodamine B assay relative to control
# [11] = test system: MCF7; experiment: Cytotoxicity against human MCF7 cells assessed as cell viability at 10 uM incubated for 48 hrs by sulforhodamine B assay relative to control
# [12] = test system: PC-3; experiment: Cytotoxicity against human PC-3 cells assessed as cell viability at 10 uM incubated for 48 hrs by sulforhodamine B assay relative to control
# [13] = test system: HOP-62; experiment: Cytotoxicity against human HOP-62 cells assessed as cell viability at 10 uM incubated for 48 hrs by sulforhodamine B assay relative to control
# [14] = test system: HCC 2998; experiment: Cytotoxicity against human HCC 2998 cells assessed as cell viability at 10 uM incubated for 48 hrs by sulforhodamine B assay relative to control
# [15] = test system: LOX IMVI; experiment: Cytotoxicity against human LOX IMVI cells assessed as cell viability at 10 uM incubated for 48 hrs by sulforhodamine B assay relative to control
# [16] = test system: SF-268; experiment: Cytotoxicity against human SF-268 cells assessed as cell viability at 10 uM incubated for 48 hrs by sulforhodamine B assay relative to control
# [17] = test system: SK-MEL-2; experiment: Cytotoxicity against human SK-MEL-2 cells assessed as cell viability at 10 uM incubated for 48 hrs by sulforhodamine B assay relative to control
# [18] = test system: M14; experiment: Cytotoxicity against human M14 cells assessed as cell viability at 10 uM incubated for 48 hrs by sulforhodamine B assay relative to control
# [19] = test system: SNB-75; experiment: Cytotoxicity against human SNB-75 cells assessed as cell viability at 10 uM incubated for 48 hrs by sulforhodamine B assay relative to control
# [20] = test system: SW-620; experiment: Cytotoxicity against human SW-620 cells assessed as cell viability at 10 uM incubated for 48 hrs by sulforhodamine B assay relative to control
# [21] = test system: Malme-3M; experiment: Cytotoxicity against human Malme-3M cells assessed as cell viability at 10 uM incubated for 48 hrs by sulforhodamine B assay relative to control
# [22] = test system: U-251; experiment: Cytotoxicity against human U-251 cells assessed as cell viability at 10 uM incubated for 48 hrs by sulforhodamine B assay relative to control
# [23] = test system: UACC-257; experiment: Cytotoxicity against human UACC-257 cells assessed as cell viability at 10 uM incubated for 48 hrs by sulforhodamine B assay relative to control
# [24] = test system: SK-MEL-5; experiment: Cytotoxicity against human SK-MEL-5 cells assessed as cell viability at 10 uM incubated for 48 hrs by sulforhodamine B assay relative to control
# [25] = test system: RPMI-8226; experiment: Cytotoxicity against human RPMI-8226 cells assessed as cell viability at 10 uM incubated for 48 hrs by sulforhodamine B assay relative to control
# [26] = test system: HOP-92; experiment: Cytotoxicity against human HOP-92 cells assessed as cell viability at 10 uM incubated for 48 hrs by sulforhodamine B assay relative to control
# [27] = test system: SF-539; experiment: Cytotoxicity against human SF-539 cells assessed as cell viability at 10 uM incubated for 48 hrs by sulforhodamine B assay relative to control
# [28] = test system: SNB-19; experiment: Cytotoxicity against human SNB-19 cells assessed as cell viability at 10 uM incubated for 48 hrs by sulforhodamine B assay relative to control
# [29] = test system: DU-145; experiment: Cytotoxicity against human DU-145 cells assessed as cell viability at 10 uM incubated for 48 hrs by sulforhodamine B assay relative to control
# [30] = test system: OVCAR-5; experiment: Cytotoxicity against human OVCAR-5 cells assessed as cell viability at 10 uM incubated for 48 hrs by sulforhodamine B assay relative to control
# [31] = test system: Hs-578T; experiment: Cytotoxicity against human HS-578T cells assessed as cell viability at 10 uM incubated for 48 hrs by sulforhodamine B assay relative to control
# [32] = test system: NCI-H322M; experiment: Cytotoxicity against human NCI-H322M cells assessed as cell viability at 10 uM incubated for 48 hrs by sulforhodamine B assay relative to control
# [33] = test system: NCI-H522; experiment: Cytotoxicity against human NCI-H522 cells assessed as cell viability at 10 uM incubated for 48 hrs by sulforhodamine B assay relative to control
# [34] = test system: BT-549; experiment: Cytotoxicity against human BT-549 cells assessed as cell viability at 10 uM incubated for 48 hrs by sulforhodamine B assay relative to control
# [35] = test system: EKVX; experiment: Cytotoxicity against human EKVX cells assessed as cell viability at 10 uM incubated for 48 hrs by sulforhodamine B assay relative to control
# [36] = test system: TK-10; experiment: Cytotoxicity against human TK-10 cells assessed as cell viability at 10 uM incubated for 48 hrs by sulforhodamine B assay relative to control
# [37] = test system: HCT-15; experiment: Cytotoxicity against human HCT-15 cells assessed as cell viability at 10 uM incubated for 48 hrs by sulforhodamine B assay relative to control
# [38] = test system: UO-31; experiment: Cytotoxicity against human UO-31 cells assessed as cell viability at 10 uM incubated for 48 hrs by sulforhodamine B assay relative to control
# [39] = test system: MDA-MB-435; experiment: Cytotoxicity against human MDA-MB-435 cells assessed as cell viability at 10 uM incubated for 48 hrs by sulforhodamine B assay relative to control
# [40] = test system: NCI-H23; experiment: Cytotoxicity against human NCI-H23 cells assessed as cell viability at 10 uM incubated for 48 hrs by sulforhodamine B assay relative to control
# [41] = test system: SR; experiment: Cytotoxicity against human SR cells assessed as cell viability at 10 uM incubated for 48 hrs by sulforhodamine B assay relative to control
structure (smiles),measurement,setting,value
O=C(NCCCNc1nccc(-c2c(-c3cccc(F)c3)nc3sccn23)n1)c1ccc(C(F)(F)F)cc1,viability at 10 µM,[1],41.8%
same,viability at 10 µM,[2],66.7%
same,viability at 10 µM,[3],73.9%
same,viability at 10 µM,[4],78.8%
same,viability at 10 µM,[5],87.5%
same,viability at 10 µM,[6],62.5%
same,viability at 10 µM,[7],69%
same,viability at 10 µM,[8],74.6%
same,viability at 10 µM,[9],89.1%
same,viability at 10 µM,[10],74.7%
same,viability at 10 µM,[11],69.7%
same,viability at 10 µM,[12],70.8%
same,viability at 10 µM,[13],124%
same,viability at 10 µM,[14],112%
same,viability at 10 µM,[15],82.6%
same,viability at 10 µM,[16],67.8%
same,viability at 10 µM,[17],98.8%
same,viability at 10 µM,[18],82.8%
same,viability at 10 µM,[19],82.6%
same,viability at 10 µM,[20],111%
same,viability at 10 µM,[21],121%
same,viability at 10 µM,[22],83%
same,viability at 10 µM,[23],106%
same,viability at 10 µM,[24],75.3%
same,viability at 10 µM,[25],96.8%
same,viability at 10 µM,[26],93.6%
same,viability at 10 µM,[27],104%
same,viability at 10 µM,[28],87.6%
same,viability at 10 µM,[29],81.3%
same,viability at 10 µM,[30],126%
same,viability at 10 µM,[31],75.7%
same,viability at 10 µM,[32],90.3%
same,viability at 10 µM,[33],90.3%
same,viability at 10 µM,[34],83.4%
same,viability at 10 µM,[35],72.2%
same,viability at 10 µM,[36],74%
same,viability at 10 µM,[37],54.2%
same,viability at 10 µM,[38],35.3%
same,viability at 10 µM,[39],68.7%
same,viability at 10 µM,[40],95.5%
same,viability at 10 µM,[41],86.8%
O=C(NCCCNc1nccc(-c2c(-c3cccc(F)c3)nc3sccn23)n1)C1CCCCC1,viability at 10 µM,[1],37.5%
same,viability at 10 µM,[2],49.3%
same,viability at 10 µM,[3],71.1%
same,viability at 10 µM,[4],63.6%
same,viability at 10 µM,[5],89.8%
same,viability at 10 µM,[6],55.7%
same,viability at 10 µM,[7],51.6%
same,viability at 10 µM,[8],94.3%
same,viability at 10 µM,[9],80.6%
same,viability at 10 µM,[10],72.6%
same,viability at 10 µM,[11],36.5%
same,viability at 10 µM,[12],73.9%
same,viability at 10 µM,[13],98.2%
same,viability at 10 µM,[14],90.5%
same,viability at 10 µM,[15],57.4%
same,viability at 10 µM,[16],80.2%
same,viability at 10 µM,[17],78.4%
same,viability at 10 µM,[18],57.6%
same,viability at 10 µM,[19],87.7%
same,viability at 10 µM,[20],82.1%
same,viability at 10 µM,[21],74.7%
same,viability at 10 µM,[22],79.6%
same,viability at 10 µM,[23],95.2%
same,viability at 10 µM,[24],52.9%
same,viability at 10 µM,[25],80%
same,viability at 10 µM,[26],105%
same,viability at 10 µM,[27],100%
same,viability at 10 µM,[28],89.8%
same,viability at 10 µM,[29],92.2%
same,viability at 10 µM,[30],105%
same,viability at 10 µM,[31],80.2%
same,viability at 10 µM,[32],86%
same,viability at 10 µM,[33],77.6%
same,viability at 10 µM,[34],78.6%
same,viability at 10 µM,[35],80.8%
same,viability at 10 µM,[36],78.9%
same,viability at 10 µM,[37],58%
same,viability at 10 µM,[38],41%
same,viability at 10 µM,[39],50.5%
same,viability at 10 µM,[40],75.7%
same,viability at 10 µM,[41],70.2%
